{"source": "patent US9067960B2", "about": "“Hybrid SCFA-hydroxyl-derivatized monosaccharides, methods of synthesis, and methods of treating disorders” (The Johns Hopkins University, priority 2007, dated 2015)", "key": {"stem cells": {"system": "stem cells", "experiment": "Control of stem cell fate", "assay_type": "cell-based, human", "text": "The combination of the biological activities SCFA- and sugar activities of compounds (such as Bu4ManNAc or l(OH)But3ManNAc is useful for cancer treatment because each of the biological activities of the hybrid molecule have been designed to work in concert against a particular characteristic of cancer. An equally valuable aspect of the current invention, however, is ability to separate the various biological activities of the hybrid molecules—for example it is now possible to maintain flux through a glycosylation pathway and to simultaneously avoid or minimize SCFA effects such as toxicity or changes to gene expression that affect the cellular phenotype under investigation (see FIG. 10). This ability opens the door to the many scenarios where an SCFA is attached to a core sugar towards the sole purpose of increasing the metabolic efficiency of the sugar without triggering biological activities of the SCFA moiety. In this case, non-natural monosaccharide analogs would transit the glycosylation pathways without eliciting unrelated changes to proliferation, apoptosis, or gene expression that would either confound interpretation of the experiment under way or actually lead to deleterious cellular outcomes. […]"}, "Toxicity of MOE analogs": {"experiment": "Toxicity of MOE analogs", "assay_type": "cell-based"}, "transformed cells": {"system": "transformed cells", "conditions": "cited from earlier work"}, "Jurkat cells [1]": {"system": "Jurkat cells", "experiment": "Surface expression of Sia5Lev: ketone-bearing sialosides by biotin hydrazide, FITC-avidin, flow cytometry", "assay_type": "cell-based, human"}, "Jurkat cells [2]": {"system": "Jurkat cells", "experiment": "Toxicity and growth inhibition assays (cell counts, days 3-15)", "assay_type": "cell-based, human", "experimental": "Solutions of the analogs in EtOH (10 mM stock) are coated onto 24-well plates at a range of concentrations from 0-320 μM and ethanol is allowed to evaporate. Jurkat cells (1.0×10^5 cells) in 0.5 mL of medium are plated in each well (day 0). On days 3 and 5, fresh medium (1.0 mL) is added to each well. Cell cultures are mixed by gentle pipetting and 100 μL of cell suspension are taken from each well and counted. On days 7, 9, 11, 13 and 15, 1.0 mL of cell suspension is removed from each well after thorough mixing and fresh medium (1.0 mL) is added. Cells are counted on day 15 and the cell density is plotted as a percentage of control.\nIn initial assays, Jurkat (human T-lymphoma) cells are incubated with compounds of the invention and growth rates were monitored. The compounds reduce cell proliferation at early time points (days 3 & 5) in a dose dependent manner."}, "histone deacetylase": {"system": "histone deacetylase", "experiment": "HDAC inhibitor (SCFA) activity of sugar-delivered butyrate", "assay_type": "cell-based", "text": "In this section, we present evidence for the first aspect of our model to describe the bioactivity of the compounds of the invention against cancer cells—namely that sugar-delivered butyrate acts as an HDACi—by a set of three complementary assays. […] Together, these assays provide convincing proof that sugar-delivery n-butyrate retains its characteristic SCFA bioactivity."}, "sialic acid biosynthesis": {"system": "sialic acid biosynthesis", "experiment": "Total sialic acid production (periodate-resorcinol assay)", "assay_type": "cell-based", "experimental": "Jurkat cells (5.0×10^6 cells in 10 mL medium) are incubated a compound of the invention at various concentrations. After three days, the cells (1.0×10^6 cells per sample) are lysed by freeze-thaw cycles (three times). The cell lysates are analyzed by using an adapted version of the periodate-resorcinol assay with the periodic acid oxidation step performed on ice to allow quantification of total (i.e., free monosaccharide plus glycoconjugate-bound) sialic acid. For each assay, a standard curve is obtained using N-acetylneuraminic acid (Pfanstiehl, Waukegan, Ill.) for calibration."}, "human cancer cells": {"system": "human cancer cells", "experiment": "Killing of cancer cells by SCFA-hexosamine hybrid molecules (apoptosis, growth)", "assay_type": "cell-based", "text": "ManNAc has several attractive features that led us to select it as an hexosamine for use in butyrate-sugar hybrid drug development. First, it is a committed precursor for the sialic acid biosynthetic pathway and has no other known metabolic roles, thereby allowing a specific and unique biochemical pathway to be targeted. Second, uptake of exogenous ManNAc alters flux through the sialic acid biosynthetic pathway and changes sialyltransferase and sialidase activity thereby altering the display of sialic acid on cell surface glycoproteins and glycolipids. Because these sialoglycans modulate apoptosis, it was hypothesized that an n-butyrate prodrug with ManNAc as an active carrier would both “arrest” and “execute” cancer cells via SCFA-mediated cell cycle inhibition and ManNAc-augmented apoptosis, respectively. […]\nJurkat cells (5.0×10^5 per mL) are incubated with PBS and a compound of the invention at […]. After 48 h, the cells are counted, harvested, washed once in fresh medium and plated in a 24-well plate containing various concentrations of sodium butyrate (0-2.0 mM; a stock solution of 200 mM in PBS was used for dilutions and control samples). Cell cultures are maintained and growth is monitored for 15 days as described above under the toxicity and growth inhibition assays. […]"}}, "note": "Entries after “also recorded” stand apart in the source; their conditions may differ.", "data": [{"smiles": "CC(=O)OCC1OC(OC(C)=O)C(NC(=O)CSC(C)=O)C(OC(C)=O)C1OC(C)=O", "note": "(centres unmarked) [Ac5ManNTGc]", "values": [{"measurement": "fate of stem cells", "setting": "stem cells", "value": "can control the fate of stem cells"}, {"measurement": "toxicity", "setting": "Toxicity of MOE analogs", "value": "considerable toxicity"}]}, {"smiles": "CCCC(=O)O.COc1cccc(C#CCON=C2CN3CCC2C3)c1", "note": "(centres unmarked) [n-Butyrate, n-butyrate]", "values": [{"measurement": "levels needed for bioactivity", "setting": "transformed cells", "value": "up to 50 mM"}]}, {"smiles": "CCCC(=O)OC1O[C@H](CO)[C@@H](OC(=O)CCC)[C@H](OC(=O)CCC)[C@@H]1NC(=O)CCC(C)=O", "note": "(stereo partly drawn) [compound 13, 1,3,4-tri-O-butanoyl-2-deoxy-2-(4-oxopentanoyl)amino-α,β-D-mannopyranose]", "values": [{"measurement": "Surface detection of ketone-bearing sialosides (cell surface ketone labeling)", "setting": "Jurkat cells [1]", "value": "even more efficient at providing cell surface ketone labeling"}, {"measurement": "Growth inhibition after 3 days", "setting": "Jurkat cells [2]", "value": "significantly less inhibitory"}]}, {"smiles": "CCCC(=O)OC1O[C@H](CO)[C@@H](OC(=O)CCC)[C@H](OC(=O)CCC)[C@@H]1NC(C)=O", "note": "(some centres unmarked) [6(OH)But3ManNAc, 1,3,4-O-Bu3ManNAc]", "values": [{"measurement": "toxicity", "setting": "Toxicity of MOE analogs", "value": "avoiding toxicity"}]}, {"smiles": "CC(=O)OCC(=O)N[C@@H]1C(OC(C)=O)O[C@H](COC(C)=O)[C@@H](OC(C)=O)[C@@H]1OC(C)=O", "note": "(some centres unmarked) [Ac5ManNGc]", "values": [{"measurement": "toxicity", "setting": "Toxicity of MOE analogs", "value": "considerable toxicity"}]}, {"smiles": "CCCC(=O)OCC1OC(OC(=O)CCC)C(NC(C)=O)[C@@H](OC(=O)CCC)[C@@H]1OC(=O)CCC", "note": "(some centres unmarked) [Bu4ManNAc]", "values": [{"measurement": "function as histone deacetylase inhibitor (HDACi)", "setting": "histone deacetylase", "value": "functioning as an HDACi"}, {"measurement": "sialic acid biosynthesis", "setting": "sialic acid biosynthesis", "value": "activates sialic acid biosynthesis; also recorded: primes sialic acid biosynthesis"}, {"measurement": "cell killing", "setting": "human cancer cells", "value": "ultimately killed the cells"}, {"measurement": "induction of apoptosis", "setting": "human cancer cells", "value": "gains a unique ability to induce apoptosis; also recorded: efficiently induced apoptosis"}]}]}
